Reference: US9920010B2, “CXCR7 receptor modulators” (IDORSIA PHARMACEUTICALS LTD, priority 2013, dated 2018)

target: T1, CXCR7 (Homo sapiens, UniProt P25106); assay: PathHunter CHO-K1 CXCR7 b-arrestin recruitment assay (CXCR7 agonistic activity); format: cell-based; conditions: PathHunter CHO-K1 CXCR7 b-arrestin cell line
T1 construct: host or cells: CHO-K1 (PathHunter CHO-K1 CXCR7 b-arrestin cell line, stably transfected)
In short: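 Stable CHO-K1 line with C-terminally ProLink-tagged CXCR7 and β-arrestin 2–EA fusion; β-arrestin recruitment restores β-gal activity, read by chemiluminescence after 1 h RT detection. Cells seeded 24 h, starved in OPTIMEM 3–4 h, exposed to compounds 90 min at 37 °C in HBSS/HEPES/BSA. Geometric-mean EC50 from repeated measurements.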

T1 sequence (P25106 whole entry): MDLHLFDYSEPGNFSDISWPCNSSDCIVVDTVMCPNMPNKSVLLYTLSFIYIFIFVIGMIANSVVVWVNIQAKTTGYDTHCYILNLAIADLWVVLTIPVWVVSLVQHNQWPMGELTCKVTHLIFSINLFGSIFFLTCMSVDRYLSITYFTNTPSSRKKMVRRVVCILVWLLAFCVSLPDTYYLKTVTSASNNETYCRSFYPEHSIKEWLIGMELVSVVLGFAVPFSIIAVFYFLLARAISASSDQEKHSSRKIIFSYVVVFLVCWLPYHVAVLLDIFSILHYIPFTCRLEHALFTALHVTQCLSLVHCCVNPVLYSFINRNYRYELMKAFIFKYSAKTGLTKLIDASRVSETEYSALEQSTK
T1 sequence (P32121 whole entry partner): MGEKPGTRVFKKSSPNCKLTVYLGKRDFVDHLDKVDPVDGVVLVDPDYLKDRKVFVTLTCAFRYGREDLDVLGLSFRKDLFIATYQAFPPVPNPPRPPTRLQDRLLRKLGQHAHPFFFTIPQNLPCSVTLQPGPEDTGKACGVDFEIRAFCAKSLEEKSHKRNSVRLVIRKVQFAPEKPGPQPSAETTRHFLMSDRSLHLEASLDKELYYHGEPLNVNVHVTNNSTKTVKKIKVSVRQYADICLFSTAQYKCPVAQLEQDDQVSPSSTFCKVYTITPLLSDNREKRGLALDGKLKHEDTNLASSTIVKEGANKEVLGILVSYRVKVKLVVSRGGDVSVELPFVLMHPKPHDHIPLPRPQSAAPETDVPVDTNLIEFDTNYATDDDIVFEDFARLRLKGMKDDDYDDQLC

Row | SMILES | EC50 [µM]
1 | CN(C)CCN(Cc1cccc(C(F)(F)F)n1)C(=O)CNc1cccc2c1CCN(CC1CC1)C2 [Example 46, 2-(2-Cyclopropylmethyl-1,2,3,4-tetrahydro-isoquinolin-5-ylamino)-N-(2-dimethylamino-ethyl)-N-(6-trifluoromethyl-pyridin-2-ylmethyl)-acetamide] | 0.003
2 | CN(C)CCN(Cc1ncccc1C(F)(F)F)C(=O)CNc1cccc2c1CCN(CC1CC1)C2 [Example 47, 2-(2-Cyclopropylmethyl-1,2,3,4-tetrahydro-isoquinolin-5-ylamino)-N-(2-dimethylamino-ethyl)-N-(3-trifluoromethyl-pyridin-2-ylmethyl)-acetamide] | 0.002
3 | CC(C)CCN(Cc1ccccc1C(F)(F)F)C(=O)CNc1cccc2c1CCN(CC1CC1)C2 [Example 48, 2-(2-Cyclopropylmethyl-1,2,3,4-tetrahydro-isoquinolin-5-ylamino)-N-(3-methyl-butyl)-N-(2-trifluoromethyl-benzyl)-acetamide] | 0.052
4 | O=C(CNc1cccc2c1CCN(CC1CC1)C2)N(CCN1CCCC1)Cc1ccc(F)cc1Cl [Example 50, N-(2-Chloro-4-fluoro-benzyl)-2-(2-cyclopropylmethyl-1,2,3,4-tetrahydro-isoquinolin-5-ylamino)-N-(2-pyrrolidin-1-yl-ethyl)-acetamide] | 0.006
5 | O=C(CNc1cccc2c1CCN(CC1CC1)C2)N(CCN1CCCC1)Cc1ccc(F)cc1F [Example 51, 2-(2-Cyclopropylmethyl-1,2,3,4-tetrahydro-isoquinolin-5-ylamino)-N-(2,4-difluoro-benzyl)-N-(2-pyrrolidin-1-yl-ethyl)-acetamide] | 0.003
6 | CN(C)CCN(Cc1ccc(F)cc1C(F)(F)F)C(=O)CNc1cccc2c1CCN(CC1CC1)C2 [Example 54, 2-(2-Cyclopropylmethyl-1,2,3,4-tetrahydro-isoquinolin-5-ylamino)-N-(2-dimethylamino-ethyl)-N-(4-fluoro-2-trifluoromethyl-benzyl)-acetamide] | 0.007
7 | CN(C)CCN(CCc1cccc(C(F)(F)F)c1)C(=O)CNc1cccc2c1CCN(CC1CC1)C2 [Example 55, 2-(2-Cyclopropylmethyl-1,2,3,4-tetrahydro-isoquinolin-5-ylamino)-N-(2-dimethylamino-ethyl)-N-[2-(3-trifluoromethyl-phenyl)-ethyl]-acetamide] | 0.043
8 | CN(C)CCN(CCc1ccc(C(F)(F)F)cc1)C(=O)CNc1cccc2c1CCN(CC1CC1)C2 [Example 56, 2-(2-Cyclopropylmethyl-1,2,3,4-tetrahydro-isoquinolin-5-ylamino)-N-(2-dimethylamino-ethyl)-N-[2-(4-trifluoromethyl-phenyl)-ethyl]-acetamide] | 0.07
9 | CN(C)CCN(CCc1ccccc1C(F)(F)F)C(=O)CNc1cccc2c1CCN(CC1CC1)C2 [Example 57, 2-(2-Cyclopropylmethyl-1,2,3,4-tetrahydro-isoquinolin-5-ylamino)-N-(2-dimethylamino-ethyl)-N-[2-(2-trifluoromethyl-phenyl)-ethyl]-acetamide] | 0.024
10 | COc1ccc(CCN(CCN(C)C)C(=O)CNc2cccc3c2CCN(CC2CC2)C3)cc1OC [Example 59, 2-(2-Cyclopropylmethyl-1,2,3,4-tetrahydro-isoquinolin-5-ylamino)-N-[2-(3,4-dimethoxy-phenyl)-ethyl]-N-(2-dimethylamino-ethyl)-acetamide] | 0.147
11 | CCN(CC)CCN(Cc1ccccc1C(F)(F)F)C(=O)CNc1cccc2c1CCN(CC1CC1)C2 [Example 60, 2-(2-Cyclopropylmethyl-1,2,3,4-tetrahydro-isoquinolin-5-ylamino)-N-(2-diethylamino-ethyl)-N-(2-trifluoromethyl-benzyl)-acetamide] | 0.001
12 | O=C(CNc1cccc2c1CCN(CC1CC1)C2)N(CCN1CCCC1)Cc1ccccc1C(F)(F)F [Example 62, 2-(2-Cyclopropylmethyl-1,2,3,4-tetrahydro-isoquinolin-5-ylamino)-N-(2-pyrrolidin-1-yl-ethyl)-N-(2-trifluoromethyl-benzyl)-acetamide] | 0.001
13 | O=C1CCCN1CCN(Cc1ccccc1C(F)(F)F)C(=O)CNc1cccc2c1CCN(CC1CC1)C2 [Example 63, 2-(2-Cyclopropylmethyl-1,2,3,4-tetrahydro-isoquinolin-5-ylamino)-N-[2-(2-oxo-pyrrolidin-1-yl)-ethyl]-N-(2-trifluoromethyl-benzyl)-acetamide] | 0.019
14 | O=C(CNc1cccc2c1CCN(CC1CC1)C2)N(CCN1CCOCC1)Cc1ccccc1C(F)(F)F [Example 64, 2-(2-Cyclopropylmethyl-1,2,3,4-tetrahydro-isoquinolin-5-ylamino)-N-(2-morpholin-4-yl-ethyl)-N-(2-trifluoromethyl-benzyl)-acetamide] | 0.008
15 | CCN(Cc1ccccc1Cl)C(=O)CNc1cccc2c1CCN(CC1CC1)C2 [Example 66, N-(2-Chloro-benzyl)-2-(2-cyclopropylmethyl-1,2,3,4-tetrahydro-isoquinolin-5-ylamino)-N-ethyl-acetamide] | 0.168
16 | N#CCCN(Cc1ccccc1)C(=O)CNc1cccc2c1CCN(CC1CC1)C2 [Example 67, N-Benzyl-N-(2-cyano-ethyl)-2-(2-cyclopropylmethyl-1,2,3,4-tetrahydro-isoquinolin-5-ylamino)-acetamide] | 0.115
17 | NC(=O)CCN(Cc1ccccc1)C(=O)CNc1cccc2c1CCN(CC1CC1)C2 [Example 68, 3-{Benzyl-[2-(2-cyclopropylmethyl-1,2,3,4-tetrahydro-isoquinolin-5-ylamino)-acetyl]-amino}-propionamide] | 0.33
18 | Cc1cccc(CN(C(=O)CNc2cccc3c2CCN(CC2CC2)C3)C2CC2)c1C [Example 69, N-Cyclopropyl-2-(2-cyclopropylmethyl-1,2,3,4-tetrahydro-isoquinolin-5-ylamino)-N-(2,3-dimethyl-benzyl)-acetamide] | 0.418
19 | CCOC(=O)CN(Cc1ccccc1)C(=O)CNc1cccc2c1CCN(CC1CC1)C2 [Example 71, {Benzyl-[2-(2-cyclopropylmethyl-1,2,3,4-tetrahydro-isoquinolin-5-ylamino)-acetyl]-amino}-acetic acid ethyl ester] | 0.326
20 | N#CCCN(Cc1ccccc1C(F)(F)F)C(=O)CNc1cccc2c1CCN(CC1CC1)C2 [Example 72, N-(2-Cyano-ethyl)-2-(2-cyclopropylmethyl-1,2,3,4-tetrahydro-isoquinolin-5-ylamino)-N-(2-trifluoromethyl-benzyl)-acetamide] | 0.028
21 | NCCN(Cc1ccc(C(F)(F)F)cc1)C(=O)CNc1cccc2c1CCN(CC1CC1)C2 [Example 73, N-(2-Amino-ethyl)-2-(2-cyclopropylmethyl-1,2,3,4-tetrahydro-isoquinolin-5-ylamino)-N-(4-trifluoromethyl-benzyl)-acetamide] | 0.066
22 | O=C(CNc1cccc2c1CCN(CC1CC1)C2)N(Cc1ccccc1C(F)(F)F)C1CCOCC1 [Example 74, 2-(2-Cyclopropylmethyl-1,2,3,4-tetrahydro-isoquinolin-5-ylamino)-N-(tetrahydro-pyran-4-yl)-N-(2-trifluoromethyl-benzyl)-acetamide] | 0.049
23 | O=C(CNc1cccc2c1CCN(CC1CC1)C2)N(CCc1ccc(F)cc1)Cc1ccccc1 [Example 75, N-Benzyl-2-(2-cyclopropylmethyl-1,2,3,4-tetrahydro-isoquinolin-5-ylamino)-N-[2-(4-fluoro-phenyl)-ethyl]-acetamide] | 0.137
24 | CN(C)CCN(Cc1ccccc1C(F)(F)F)C(=O)CNc1cccc2c1CCN(CC1CC1)C2 [Example 76, 2-(2-Cyclopropylmethyl-1,2,3,4-tetrahydro-isoquinolin-5-ylamino)-N-(2-dimethylamino-ethyl)-N-(2-trifluoromethyl-benzyl)-acetamide] | 0.002
25 | Cc1csc(CN(Cc2ccccc2C(F)(F)F)C(=O)CNc2cccc3c2CCN(CC2CC2)C3)n1 [Example 77, 2-(2-Cyclopropylmethyl-1,2,3,4-tetrahydro-isoquinolin-5-ylamino)-N-(4-methyl-thiazol-2-ylmethyl)-N-(2-trifluoromethyl-benzyl)-acetamide] | 0.046
26 | O=C1CC(CN(Cc2ccccc2C(F)(F)F)C(=O)CNc2cccc3c2CCN(CC2CC2)C3)=CC=N1 [Example 78, 2-(2-Cyclopropylmethyl-1,2,3,4-tetrahydro-isoquinolin-5-ylamino)-N-(2-oxo-2,3-dihydro-pyridin-4-ylmethyl)-N-(2-trifluoromethyl-benzyl)-acetamide] | 0.376
27 | O=C(CNc1cccc2c1CCN(CC1CC1)C2)N(CCN1CCNC1=O)Cc1ccccc1C(F)(F)F [Example 79, 2-(2-Cyclopropylmethyl-1,2,3,4-tetrahydro-isoquinolin-5-ylamino)-N-[2-(2-oxo-imidazolidin-1-yl)-ethyl]-N-(2-trifluoromethyl-benzyl)-acetamide] | 0.135
28 | O=C(CNc1cccc2c1CCN(CC1CC1)C2)N(CCOCc1ccccc1)Cc1ccccc1C(F)(F)F [Example 82, N-(2-Benzyloxy-ethyl)-2-(2-cyclopropylmethyl-1,2,3,4-tetrahydro-isoquinolin-5-ylamino)-N-(2-trifluoromethyl-benzyl)-acetamide] | 0.158
29 | CN(CCN(Cc1ccccc1C(F)(F)F)C(=O)CNc1cccc2c1CCN(CC1CC1)C2)C(=O)OC(C)(C)C [Example 83, {2-[[2-(2-Cyclopropylmethyl-1,2,3,4-tetrahydro-isoquinolin-5-ylamino)-acetyl]-(2-trifluoromethyl-benzyl)-amino]-ethyl}-methyl-carbamic acid tert-butyl ester] | 0.088
30 | CC(C)(C)OC(=O)N1[C@H](CN(Cc2ccccc2C(F)(F)F)C(=O)CNc2cccc3c2CCN(CC2CC2)C3)COC1(C)C [Example 84, (R)-4-{[[2-(2-Cyclopropylmethyl-1,2,3,4-tetrahydro-isoquinolin-5-ylamino)-acetyl]-(2-trifluoromethyl-benzyl)-amino]-methyl}-2,2-dimethyl-oxazolidine-3-carboxylic acid tert-butyl ester] | 0.272
